Experimental data: paper PMC10107299, “Neutralizing the Impact of the Virulence Factor LecA from Pseudomonas aeruginosa on Human Cells with New Glycomimetic Inhibitors” (Angewandte Chemie (International Ed. in English), 2023)

Assay: In vivo pharmacokinetic study in rats
Design: species or system Sprague-Dawley rats
Protocol: Encouraged by these promising in vitro results, an in vivo pharmacokinetic study was conducted for H2 and L2 in mice (1 mg kg^−1, i. v.) and in rats for L2 (10 mg kg^−1, i. v.). Compound concentrations were monitored in plasma and urine (Figure 6). H2 and L2 were cleared from mouse plasma within 1 h. Both compounds rapidly reached high concentrations in urine, several orders of magnitude above their respective in vitro LecA binding affinity. In fact, concentrations above the K ds were detected over the entire observation period of 5 h. […] In rats, higher amounts of L2 were detected both in plasma and urine, not solely corresponding to the 10‐fold increased dose. […] Importantly, high levels of L2 were present in rat urine even 24 h after administration. […]
Pharmacokinetic studies in rat
The in vivo part of the study was performed by the CRO Pharmacelsus (Saarbrücken, Germany). For rat in vivo pharmacokinetic studies, male Sprague-Dawley rats (Janvier-Labs, France) with 350 g - 400 g body weight were used. All experimental procedures were approved by and conducted in accordance with the regulations of the local Animal Welfare authorities (Landesamt für Gesundheit und Verbraucherschutz, Abteilung Lebensmittel- und Veterinärwesen, Saarbrücken) and any clinical signs of toxicity and any changes in behavior of the animals were recorded. Food and water were provided ad libitum throughout the study. Rats were provided with a catheter in the jugular vein 2 - 3 days prior to drug administration and blood sampling. According to national animal welfare guidelines, rats were treated once with Carprofen (5 mg/kg) directly after catheterization. Catheter was rinsed daily with K3EDTA. L2 was dissolved in PBS (pH 7.4) and administered i.v. in individual PK studies (N = 3) at 10 mg/kg in a volume of 2 mL/kg. At t = 0 h, rats were placed into metabolic cages for drug administration and immediate collection of urine and faeces samples. Further excretion products were collected during 0 - 2 h, 2 - 4 h, 4 - 8 h and 8 - 24 h. Excreta sample volumes were determined and immediately stored at -80 °C until analysis by LC-MS. 80 µL K3EDTA-treated blood was collected at t = 0.083 h, 0.25 h, 0.5 h, 1 h, 2 h, 4 h, 6 h, 8 h and 24 h post dose and samples were stored on ice until centrifugation (10 minutes at 4500 x g, 4 °C). Plasma was prepared within 45 min after collection, frozen and stored at -80 °C until analysis by LC-MS. […]
clinical signs observed after dosing.
Bioanalysis of pharmacokinetic samples from mice and from rat
First, a calibration curve was prepared by spiking different concentrations of L2 and H2 into mouse plasma, rat plasma or mouse urine (matrix for mouse and rat PK samples) from CD-1 mice. Glipizide was used as an internal standard. In addition, quality control samples (QCs) were prepared for L2 and H2 in plasma and urine. The following extraction procedures were used: 7.5 µl of a plasma sample or 15 µl of a urine sample (calibration samples, QCs or PK samples) was extracted with 35 µl of methanol containing 12.5 ng/ml of glipizide as internal standard for 15 min at 2000 rpm on an Eppendorf MixMate vortex mixer. Then samples were spun down at 15870 x g for 10 min. Supernatants were transferred to standard HPLC-glass vials. Samples from the mouse PK study with H2 in mice and from the rat PK study with L2 were analyzed via HPLC-MS/MS as described in the HPLC-MS analysis section above. PK samples from the mouse PK study with L2 were analyzed using an Agilent 1290 Infinity II HPLC system coupled to an AB Sciex QTrap 7500 mass spectrometer. LC conditions were the same as for the analysis of the samples from the mouse PK study with H2 and from the rat PK study with L2. Mass transitions for controls and compounds are depicted in the following table for the AB Sciex Trap 7500 mass spectrometer.
Peaks of PK samples were quantified using the calibration curve. The accuracy of the calibration curve was determined using QCs independently prepared on different days. […]

SMILES: O=C(CCc1ccc(O[C@@H]2O[C@H](CO)[C@H](O)[C@H](O)[C@H]2O)cc1)Nc1ccc(CCc2ccc(NC(=O)CCc3ccc(O[C@@H]4O[C@H](CO)[C@H](O)[C@H](O)[C@H]4O)cc3)cc2S(=O)(=O)O)c(S(=O)(=O)O)c1 [Compound L2]
- L2 in rat urine (24 h after administration, 10 mg kg^−1 i.v.): high levels
- half-life (male, Sprague-Dawley, iv, rat plasma, 10 mg kg^−1 i.v., N=3): 37 ± 12 min
- AUC (male, Sprague-Dawley, iv, rat plasma, 10 mg kg^−1 i.v., read-out: area under the curve (AUC)): 19.7 ± 12.8 µM·h
- MRT (male, Sprague-Dawley, iv, rat plasma, 10 mg kg^−1 i.v., read-out: mean residence time (converted)): 41 min
- clearance (male, Sprague-Dawley, plasma, iv, rat, 10 mg kg^−1 i.v.): 9.84 ± 5 mL/min/kg
- Vd (male, Sprague-Dawley, plasma, iv, rat, 10 mg kg^−1 i.v., read-out: distribution volume VD): 0.46 L/kg
- Time plasma concentration exceeds on-target affinity (rat plasma, 10 mg kg^−1 i.v.): at least 6 h
- Behavior and clinical signs after dosing (rat, 10 mg/kg i.v.): normal behavior
